Results reported in PMC4821887, “Identification of chemicals that mimic transcriptional changes associated with autism, brain aging and neurodegeneration” (Nature Communications, 2016).
Structures can show the parent of a compound that is named as a salt.

Tested on: mouse cortical neuron cultures
Details: not given

Row | Compound | % Dead cells (vehicle subtracted)
1 | S=C1NCCN1 [Ethylenethiourea (2-Imidazolidinethione)] | -0.5482%
2 | O=C(O)c1nc(Cl)ccc1Cl | -1.907%
3 | NCCO.O=C(O)c1nc(Cl)ccc1Cl [Clopyralid-olamine] | 0.5713%
4 | CNC(=O)Oc1cccc(N=CN(C)C)c1 [Formetanate hydrochloride] | 1.887%
5 | S=C([S-])NCCNC(=S)[S-].[Mn+2] [Maneb] | 6.097%
6 | COP(=S)(OC)Oc1ccc([N+](=O)[O-])cc1 [Parathion-methyl] | 1.486%
7 | CCCCC(CC)COC(=O)c1ccccc1C(=O)OCC(CC)CCCC (stereo not drawn) [Diethylhexyl phthalate (DEHP)] | -0.2848%
8 | CCN(Cc1c(F)cccc1Cl)c1c([N+](=O)[O-])cc(C(F)(F)F)cc1[N+](=O)[O-] [Flumetralin] | 1.368%
9 | CCC(C)n1c(=O)[nH]c(C)c(Br)c1=O (stereo not drawn) [Bromacil] | 5.5524%
10 | Abamectin | 4.666%
11 | CCOc1cc(C(C)(C)C)ccc1C1COC(c2c(F)cccc2F)=N1 (stereo not drawn) [Etoxazole] | -1.186%
12 | N#Cc1c[nH]cc1-c1cccc2c1OC(F)(F)O2 [Fludioxonil] | -2.856%
13 | COc1cc(OC)nc(NC(=O)[N-]S(=O)(=O)c2ncccc2OCC(F)(F)F)n1.[Na+] [Trifloxysulfuron-sodium] | 0.5929%
14 | CCOC(=O)CC(SP(=O)(OC)OC)C(=O)OCC (stereo not drawn) [Malaoxon] | -0.008689%
15 | CCC(CC)Nc1c([N+](=O)[O-])cc(C)c(C)c1[N+](=O)[O-] [Pendimethalin] | 0.8617%
16 | Metiram-zinc | -0.5751%
17 | CS(=O)(=O)c1ccc(C(=O)C2C(=O)CCCC2=O)c([N+](=O)[O-])c1 [Mesotrione] | 0.1871%
18 | Clc1nc(Cl)nc(Nc2ccccc2Cl)n1 | -1.572%
19 | Cc1ccc(/N=C/N(C)/C=N/c2ccc(C)cc2C)c(C)c1 [Amitraz] | 0.3334%
20 | N#CN [Cyanamide] | 0.2955%
21 | COC(=O)c1ccccc1C(=O)O [Methyl hydrogen phthalate] | 1.938%
22 | COP(=O)(OC)C(O)C(Cl)(Cl)Cl (stereo not drawn) [Trichlorfon] | 2.414%

Row | Compound | % Dead cells (vehicle subtracted)
23 | COc1ccc(C(c2ccc(OC)cc2)C(Cl)(Cl)Cl)cc1 [Methoxychlor] | -0.6222%
24 | Cc1ccccc1CO[C@@H]1C[C@@]2(C(C)C)CC[C@]1(C)O2 (racemic) [Cinmethylin] | -0.5547%
25 | C[C@@H]1[C@@H](c2ccc(Cl)cc2)SC(=O)N1C(=O)NC1CCCCC1 [Hexythiazox] | 0.5871%
26 | CC(Oc1cccc(Cl)c1)C(=O)O (stereo not drawn) [Cloprop] | -3.007%
27 | COC(=O)c1ccc(I)cc1S(=O)(=O)[N-]C(=O)Nc1nc(C)nc(OC)n1.[Na+] [Iodosulfuron-methyl-sodium] | -4.352%
28 | CCO/N=C(\CC)C1=C(O)CC(c2c(C)cc(C)cc2C)CC1=O (stereo not drawn) [Tralkoxydim] | 4.508%
29 | C#CC(C)(C)NC(=O)c1cc(Cl)cc(Cl)c1 [Propyzamide] | 1.57%
30 | CC(C)C1(C)N=C(c2nc3ccccc3cc2C(=O)O)NC1=O (stereo not drawn) [Imazaquin] | -2.73%
31 | CCOC(=O)COc1cc(-c2nn(C)c(OC(F)F)c2Cl)c(F)cc1Cl [Pyraflufen-ethyl] | -2.144%
32 | CNC(=O)O/N=C(\SC)C(=O)N(C)C [Oxamyl] | -2.835%
33 | Cl[C@H]1[C@H](Cl)[C@@H](Cl)[C@@H](Cl)[C@H](Cl)[C@H]1Cl [Lindane] | 3.537%
34 | C=CCOC(Cn1ccnc1)c1ccc(Cl)cc1Cl (stereo not drawn) [Imazalil] | 0.2633%
35 | Cc1cnc(C2=NC(C)(C(C)C)C(=O)N2)c(C(=O)O)c1 (stereo not drawn) | -0.5785%
36 | CCOP(=O)(OCC)Oc1cc(C)nc(C(C)C)n1 [Diazoxon] | -0.938%
37 | O=C(O)c1cc(Oc2ccc(C(F)(F)F)cc2Cl)ccc1[N+](=O)[O-] [Acifluorfen] | 3.873%
38 | CCOC1Oc2ccc(OS(C)(=O)=O)cc2C1(C)C (stereo not drawn) [Ethofumesate] | -0.3872%
39 | CCCN(CCC)c1c([N+](=O)[O-])cc(C(F)(F)F)c(N)c1[N+](=O)[O-] [Prodiamine] | -0.1982%
40 | CCC(C)OC(=O)N1CCCCC1CCO (stereo not drawn) [Icaridin] | 2.044%
41 | C=CCC1=C(C)[C@@H](OC(=O)[C@@H]2[C@@H](C=C(C)C)C2(C)C)CC1=O [S-Bioallethrin] | -1.697%
42 | O=C(O)COc1nc(Cl)c(Cl)cc1Cl [Triclopyr] | -0.8572%
43 | CNC(=O)N(C)c1nnc(C(C)(C)C)s1 [Tebuthiuron] | -0.9604%
44 | COc1nc(NC(C)C)nc(NC(C)C)n1 | -1.14%

Same assay, conditions: 10 µM chemical; mouse cortical neuron cultures

Row | Compound | % Dead cells (vehicle subtracted)
45 | CCCCC(CC)COC(=O)c1ccccc1C(=O)O (stereo not drawn) | -0.8176%

Same assay, conditions: mouse, 24 h, 10 µM

Row | Compound | % Dead cells (vehicle subtracted)
46 | CCC(C)(CC)c1cc(NC(=O)c2c(OC)cccc2OC)on1 [Isoxaben] | -1.274%
47 | O=C1c2ccccc2C(=O)N1SC(Cl)(Cl)Cl [Folpet] | -1.248%
48 | CC1(C)CCC(=Cc2ccc(Cl)cc2)C1(O)Cn1cncn1 (stereo not drawn) [Triticonazole] | 0.8709%
49 | O=P(O)(O)CCCl [Ethephon] | -0.1299%
50 | CCOC(=O)NC(=S)Nc1ccccc1NC(=S)NC(=O)OCC [Thiophanate] | -1.666%
51 | OC(c1ccc(Cl)cc1)(c1ccc(Cl)cc1)C(Cl)(Cl)Cl [Dicofol] | 1.054%
52 | CC(C)(C)C(O)C(Oc1ccc(Cl)cc1)n1cncn1 (stereo not drawn) [Triadimenol] | 2.51%
53 | CCC(C)Nc1c([N+](=O)[O-])cc(C(C)(C)C)cc1[N+](=O)[O-] (stereo not drawn) [Butralin] | 4.6194%
54 | CC(C)(C)[C@@H](O)[C@@H](Cc1ccc(Cl)cc1)n1cncn1 (racemic) [Paclobutrazol] | -2.562%
55 | CCCCOCCOCCOCc1cc2c(cc1CCC)OCO2 [Piperonyl butoxide] | -3.535%
56 | COC(=O)c1ccccc1S(=O)(=O)NC(=O)N(C)c1nc(C)nc(OC)n1 [Tribenuron-methyl] | -1.861%
57 | C#CCOC(=O)[C@@H](C)Oc1ccc(Oc2ncc(Cl)cc2F)cc1 [Clodinafop-propargyl] | -2.625%
58 | CCCCOCN(C(=O)CCl)c1c(CC)cccc1CC [Butachlor] | 0.2625%
59 | COC(=O)N(C(=O)N1CO[C@@]2(C(=O)OC)Cc3cc(Cl)ccc3C2=N1)c1ccc(OC(F)(F)F)cc1 [Indoxacarb] | 0.6208%
60 | CCc1cnc(C2=NC(C)(C(C)C)C(=O)N2)c(C(=O)O)c1 (stereo not drawn) [Imazethapyr] | 4.704%
61 | CC1(C(=O)Nc2ccc(O)c(Cl)c2Cl)CCCCC1 [Fenhexamid] | -0.6431%
62 | CCN(CC)C(=O)C(C)Oc1cccc2ccccc12 (stereo not drawn) [Napropamide] | -2.444%
63 | COc1cc(OC)nc(Sc2cccc(Cl)c2C(=O)O)n1 [Pyrithiobac-sodium] | 0.5188%
